ChEMBL document CHEMBL3507680, “University of Dundee, Gates Library screen for HepG2 cell viability”

Assay: Human HepG2 cell viability assay in 384 well format
Format: toxicity, cell-based
Parameters: dose 125 nL, time 70.5 hour; cytotoxicity at 70.5 h: concentration not given beside the values
Settings: HepG2 cells, read-out: Inhibition

Compound | cytotoxicity at 70.5 h
Cn1nc(C(=O)NCCc2ccc(OC3CCCC3)cc2)ccc1=O | 12.1%
COc1ccc(COCC(=O)N2CCC(c3nncn3C)CC2)cc1 | -12.3%
CCc1nnc2n1CCN(C(=O)CCc1ccc(C)c(Cl)c1)C2 | -1.97%
N#Cc1ccc(N2CCC(OCCc3ccccc3)CC2)nc1 | -13.8%
COC(=O)COc1nc(C(C)C)no1 | -10.1%
CN(C1CCN(C(=O)NCCc2ccc(F)cc2F)CC1)S(C)(=O)=O | -5.3%
COc1ccc(C(=O)CCC(=O)NCc2c(C)noc2C)cc1F | 23.7%
COc1ccc(CNCC2CN(C3CC3)CCO2)cc1OC (configuration not stated) | -7.17%
Cn1cnnc1C1CCN(C(=O)COCc2ccccc2Cl)CC1 | -11.8%
CCc1n[nH]c(C2CN(C(=O)CCOCC(F)(F)F)CCO2)n1 (configuration not stated) | -12.9%
O=C(CN1CC(n2cccn2)C1)NCC1(c2ccccc2)CCC1 | 13.6%
c1ncn(CCNC2CCCN(Cc3noc(C4CC4)n3)C2)n1 (configuration not stated) | -11.2%
CC(NC(=O)Nc1ccncc1)c1ccc2c(c1)CC(=O)N2 (configuration not stated) | -7.01%
O=C(NCCCN1CCN(c2ncccn2)CC1)Nc1ccccn1 | -2.48%
NC(=O)CC1CCN(C(=O)c2cnc(-c3ccccc3F)s2)CC1 | -22.8%
Cc1cc(N2CCc3c(nc(C(C)C)n3C)C2)nc(N)n1 | -10.6%
N#CCCN(Cc1cccnc1)C(=O)c1ccc(OCC2CC2)cc1 | -4.18%
OC(CN1CCN(CC(F)F)CC1)c1ccc(Br)cc1 (configuration not stated) | 1.14%
OC(CN1CCN(CC2CCCCC2)CC1)c1ccccc1 (configuration not stated) | -8.48%
COc1cccc(NC(=O)NC(C)c2ccc3c(c2)CC(=O)N3)c1 (configuration not stated) | -3.09%
Cn1ccnc1CNC(=O)Nc1ccc(OC2CCC2)c(F)c1 | 20%
O=C(Cc1ccon1)NC1CC2(CCC2)Oc2ccccc21 (configuration not stated) | 4.31%
CC(=O)NCCCOc1c(C)cccc1Cl | -2.28%
CC(=O)NCCOc1c(C)cccc1C | -4.39%
O=C(CN1CCN(CCO)CC1)NCCc1c(F)cccc1F | -1.38%

Compound | cytotoxicity at 70.5 h
Cc1cccc(CCC(=O)NCC2CCCN2c2cccnn2)c1 (configuration not stated) | 5.29%
O=C(CNCC1CCCN1c1cccnn1)NCCc1cccs1 (configuration not stated) | -1.9%
Cc1ccccc1CN1CCCN(CCN2CCOC2=O)CC1 | -1.61%
CN(CCCNC(=O)CN1CCS(=O)(=O)CC1)c1ccccc1 | -6.59%
CCC(C)NC(=O)c1ccc(CNC(=O)CCC(C)C)cc1 (configuration not stated) | 15.4%
CC1CCCCN1Cc1nc(C2CC2)no1 (configuration not stated) | -4.41%
CN(Cc1ccccc1OC(F)(F)F)C(=O)C1CCCN(C(N)=O)C1 (configuration not stated) | -6.37%
COCCN(C)C(=O)Nc1ccc(C(=O)NCCC(=O)OC)cc1 | -8.51%
CCCN(C)C(=O)Nc1ccc(C(=O)NCCC(=O)OC)cc1 | -6.01%
COC(=O)C1CN(CC(=O)Nc2cc(F)ccc2F)c2ccccc21 (configuration not stated) | -7.21%
COC(=O)C1CN(CC(=O)Nc2ccccc2Cl)c2ccccc21 (configuration not stated) | -5.02%
O=C(NCc1cccc(N2CC=CC2)c1)NCC(F)(F)F | -2.26%
O=C(NCc1cccc(N2CC=CC2)c1)NC1CC1 | -2.22%
CC(C)(C)OC(=O)NCC1CCN(C(=O)c2ccc(F)cc2F)C1 (configuration not stated) | -4.74%
CC(C)(C)OC(=O)NCC1CCN(C(=O)c2ccccc2O)C1 (configuration not stated) | -0.832%
Cc1cnc(CNC(=O)NCCOc2ncccc2Cl)s1 | -3.34%
CC(C)c1cc(CNC(=O)NCc2cccc(N3CC=CC3)c2)on1 | -3.2%
Cc1cnc(CCNC(=O)NCCOc2ncccc2Cl)s1 | -2.69%
Cc1cnc(NC(=O)NCCOc2ncccc2Cl)s1 | -4.99%
CN(C)c1ncc(NC(=O)N2CCC(CN3CCCC3)C2)cn1 (configuration not stated) | 0.1%
CCC(C)(NCC(=O)NC(=O)NC)c1nccs1 (configuration not stated) | -4.72%
Cc1ccccc1-n1cnnc1SCCOCC1CCCO1 (configuration not stated) | -5%
COC(=O)N1CCC(Nc2cccc(F)c2C(C)=O)CC1 | -10.1%
CC(C)(C)S(=O)(=O)CCNC1CSCCc2ccccc21 (configuration not stated) | 27.7%
CCN(CC(F)(F)F)C(=O)C1CCCN(Cc2cscn2)C1 (configuration not stated) | 26.1%

Compound | cytotoxicity at 70.5 h
Oc1ccc2oc3c(c2c1CN1CCOCC1)CCCC3 | -8.06%
CNC(=O)c1cccc(NC(=O)NCc2ccccc2)c1C | -10.1%
CS(=O)(=O)N1CCN(Cc2c(O)ccc3oc4c(c23)CCCC4)CC1 | -10.3%
Cc1nn(C)c(N2CCOCC2)c1CNCC1CCN(C2CC2)C1 (configuration not stated) | 15.8%
CC(=O)NCC1CN(c2ccc3c(Cl)ccnc3c2F)CCO1 (configuration not stated) | -7.29%
COc1ccc2cccc(CC(=O)NCCc3n[nH]c(=O)[nH]3)c2c1 | -8.41%
COc1ccc2cccc(CC(=O)NCCCc3n[nH]c(C)n3)c2c1 | 4.93%
O=S(=O)(NCCN1CC=CC1)c1cncc(Cl)c1 | -0.531%
O[C@@H]1CCN(c2ccc3c(Cl)ccnc3c2F)C1 | -8.44%
Cn1ccnc1CCNC(=O)NCCC1CCCCO1 (configuration not stated) | -2.69%
CC(C)c1nnc(NCc2ccsc2)o1 | 3.33%
Cn1ccnc1SCC(=O)NCCC1CCCO1 (configuration not stated) | 31.2%
CCOc1cc(C)nc(N2CCN(C(C)c3nc(C)no3)CC2)n1 (configuration not stated) | -1.64%
COCC1CN(c2ccc3c(Cl)ccnc3c2F)CCO1 (configuration not stated) | 20.2%
CCc1nc(CNC2CCCc3c2cnn3CC)cs1 (configuration not stated) | 6.14%
CS(=O)(=O)NCCCNc1ccc(C(F)(F)F)cc1C#N | -3.55%
Cc1ncc2c(n1)CCN(C(C(N)=O)c1ccccc1)C2 (configuration not stated) | -2.66%
CCOC(=O)c1nc(CN2CCN(C(=O)NC3CCCCC3)CC2)cs1 | -7.73%
O=C(c1c[nH]c2ncccc12)N(Cc1ccco1)C1CCCC1 | -3.94%
CCc1ncc2c(n1)CN(C(C(N)=O)c1ccccc1)CC2 (configuration not stated) | -3.45%
N#Cc1cnc2ccccc2c1N1CCNCC1 | -1.59%
CC(C)Cn1cnnc1C1CCCN1C(=O)OC(C)(C)C (configuration not stated) | -0.156%
CCN(C(=O)CNc1cc(C)c(F)cc1C(N)=O)C1CC1 | 0.591%
Cc1cc(NCC(=O)N(C)C(C)c2cccs2)c(C(N)=O)cc1F (configuration not stated) | 1.44%
CCNC(=O)NC1CCCN(c2ccc(C)cc2)C1=O (configuration not stated) | 0.44%

Compound | cytotoxicity at 70.5 h
Cc1cc(NCC(=O)N(C)Cc2cccs2)c(C(N)=O)cc1F | 0.052%
O=C(NC(CN1CCCC1)c1ccccc1)c1c(O)cc(F)cc1F (configuration not stated) | -1.92%
O=C1CC(CNc2cncc(Br)c2)c2ccccc2N1 (configuration not stated) | 3.03%
NC(=O)CN(C(=O)c1c[nH]c2ncccc12)C1CCCC1 | 3.16%
Cc1cnn(-c2cccc(N3CCCC3)n2)c1 | -1.27%
CCN(CC)C(=O)Cc1csc(C(C)C)n1 | 14%
CC(=O)N1CCC[C@H]1C(=O)N(C)CCCOc1ccccc1 | -2.16%
O=C(Nc1ccccc1OC1CCOC1)c1[nH]nc2c1CCCC2 (configuration not stated) | 8.78%
COc1ccc(F)cc1CSCC(=O)N(C)C1CC1 | -0.442%
CCS(=O)(=O)c1ccc2c(c1)OCCO2 | -0.357%
COc1ccc(C(=O)N(c2ccc(OC)c(F)c2)C(C)C)cn1 | -2.91%
CC(c1nc(C2CC2)no1)N(C)Cc1cccc(F)c1 (configuration not stated) | -2.41%
O=C(NCc1cccnc1)N1CCSCC1CCO (configuration not stated) | 13.2%
O=C(Nc1nncs1)c1ccc(-n2cnnn2)cc1 | 1.5%
Cc1nn(C)c(Cl)c1CNCCOc1ccc2c(c1)OCO2 | 7.39%
Cn1cnc2c1CCN(CC(=O)N(Cc1ccccc1F)C1CC1)C2 | -6.36%
CC(C)c1nnc2n1CCN(C(=O)c1ccccc1OCC1CC1)C2 | -4.61%
COc1ccc2c(c1)C(=O)N(C)C1(CCN(CC3CC3)CC1)N2 | 3.49%
COCCS(=O)(=O)Nc1ccc(-n2nccc2C(F)(F)F)cc1 | 18.2%
Cc1cccc(C)c1OCC(=O)Nc1cccn(C)c1=O | -4.44%
COCCNC(=O)NCCc1cccc(OC)c1O | 0.934%
Cn1cnc2c1CCN(CC(=O)N(Cc1ccsc1)C1CC1)C2 | 0.271%
O=C(NCc1ccncc1)N1CCSCC1c1ccc(Cl)cc1 (configuration not stated) | 3.04%
N#Cc1cccnc1NCCC1CCN(CC(F)(F)F)CC1 | -5%
CSc1ccc(NC(=O)NCC(O)C(C)C)cc1F (configuration not stated) | 4.17%

Compound | cytotoxicity at 70.5 h
CSc1ccc(NC(=O)NCC(O)C2CC2)cc1F (configuration not stated) | 7.73%
Cn1cnn(CC(=O)NCc2ccccc2F)c1=O | 20.6%
Cn1cnn(Cc2ccccc2F)c1=O | 2.33%
O=C1C(Nc2ncccn2)CCN1c1ccccc1OC(F)F (configuration not stated) | 1.42%
COc1ccccc1N1CCCC(Nc2ncccn2)C1=O (configuration not stated) | -3.79%
COc1cccc(CCNC(=O)NC(C)C)c1O | 9.97%
c1ccc(-c2nnc3ccc(N4CCC5(CCOC5)C4)nn23)cc1 (configuration not stated) | 5.72%
CN(C)S(=O)(=O)Nc1ccc(-n2nncc2C(F)(F)F)cc1 | 3.32%
O=C(Cc1ccc(-n2cnnn2)cc1)Nc1nncs1 | -3.13%
CN(CCO)C(=O)Nc1ccn(-c2cccc(C(F)(F)F)c2)n1 | -2.71%
COCCNC(=O)Nc1ccn(-c2cccc(C(F)(F)F)c2)n1 | 9.44%
CC(C)C(NC(=O)c1ccccc1)C(=O)N1CCC2(CC1)OCCO2 (configuration not stated) | 17.2%
CN(CCOc1ccc(Br)cc1)Cc1cscn1 | 1.92%
CN(Cc1ccsc1)C(=O)CN1CCc2c(ncn2C)C1 | 17.8%
CCN(CCS(=O)(=O)CC)CC1CCCO1 (configuration not stated) | -3.45%
CCc1nc(CN(C)Cc2nnc(-c3cccs3)o2)cs1 | -3.41%
Cc1nsc(NC2CCN(c3ccccc3OC(F)F)C2=O)n1 (configuration not stated) | 9.92%
Cc1cc(C)cc(OCCN(C)Cc2cscn2)c1 | 0.706%
COc1cccc2c1N(Cc1noc(C(C)(C)C)n1)CCC2 | 18.5%
COc1cc(CNCC2CN(C3CC3)CCO2)cc(OC)c1 (configuration not stated) | -2.94%
CC(C)c1cc(=O)[nH]c(C(C)(C)N)n1 | -3.05%
N#Cc1cnc2ccccc2c1N1CCN(CCC(=O)O)CC1 | 1.24%
